Test results: EP4417190A1, “CYCLIC PEPTIDES WITH ANTI-AGING EFFICACY” (Lipotrue, S.L., priority 2023, dated 2024)

How the values were obtained:
[1] = system: TGFBR3; experiment: RT-qPCR expression of aging-related gene TGFBR3 in HEKa; assay type: cell-based, human; conditions: 0.01 mg/mL, 24 h
Method: (§4) Then, cells were lysed, and RNA was extracted (RNeasy mini kit, Qiagen). Purified RNAs were retro-transcribed (High-capacity cDNA reverse transcription kit, Applied Biosystems). RT-qPCR was performed with the panel of TaqMan assay probes (Thermo Fisher Scientific) using StepOne plus Real time PCR instrument. […] The obtained data were analyzed using the ΔΔCt method, which provides the target gene expression values as fold changes in the treated sample compared with an untreated basal sample. Both samples were normalized with the relative expression of the housekeeping gene GAPDH.

[2] = system: ITGA5; experiment: RT-qPCR expression of aging-related gene ITGA5 in HEKa; assay type: cell-based, human; conditions: 0.01 mg/mL, 24 h
Method: as §4

[3] = system: ITGA5; experiment: RT-qPCR expression of aging-related gene ITGA5 in HDFa; assay type: cell-based, human; conditions: 0.05 mg/mL, 6 h
Method: as §4

[4] = system: ITGB1; experiment: RT-qPCR expression of aging-related gene ITGB1 in HDFa; assay type: cell-based, human; conditions: 0.05 mg/mL, 6 h
Method: as §4

[5] = system: TGFBR3; experiment: RT-qPCR expression of aging-related gene TGFBR3 in HDFa; assay type: cell-based, human; conditions: 0.05 mg/mL, 6 h
Method: as §4

[6] = system: Caspase 3 (CASP3); experiment: Caspase 3 activity under BFA-induced endoplasmic reticulum stress in HEKa (Caspase-Glo 3/7); assay type: cell-based, human; conditions: BFA-induced ER stress, 24 h, vs BFA-treated cells (Figure 5)
Method: Caspase 3 (CASP3) is a protein member of the cysteine-aspartic acid protease family. Sequential activation of caspases plays a central role in the execution-phase of cell apoptosis. It was evaluated the effect of the cycled peptide B on the caspase 3 activity in human epidermal keratinocytes from adult (HEKa) subjected to endoplasmic reticulum (ER) stress.
HEKa cells were seeded in a black 96-well plate at a density of 18.000 cell/well in Dermal Cell Basal Medium (DCBM) and incubated at 37 °C in a humidified atmosphere with 5% CO2. After 24 h of incubation, cells were treated with 0.15 µg/mL BFA alone or in the presence of 0.005 mg/mL of the cycled peptide B and returned to the incubator for 24 h more. Untreated cells (Basal) were used as negative control samples. 24 hours after treatment, caspase 3 activity was evaluated using Caspase-Glo® 3/7 Assay System, following manufacturer instructions.
Each condition was performed at least in triplicates (n=3) in three independent experiments (N=3). For all data, mean values of relative fluorescence units (RFU) of the different experiments and SEM values are shown. All data was normalized as follows: % vs BFA = (RFU treated cells)/(RFU BFA treated cells) × 100 [formula]
Statistical data analysis was performed using Student t-test by comparison of % activity from test substance vs BFA-treated cells, *p<0.05, **p<0.01, ***p<0.001.

[7] = system: COL3A1, COL5A1, COL6A1, COL7A1, COL1A1 and COL4A1; experiment: qPCR expression of collagen genes in HDFa; assay type: cell-based, human; conditions: 6 hours, 0.001 mg/mL (COL3A1, COL5A1, COL6A1, COL7A1) or 0.1 mg/mL (COL1A1, COL4A1), compared with linear form (Figure 6A, 6B)
Method: (§1) HDFa cells were seeded in duplicate (n=2) in 12-well plates at a concentration of 200.000 cells/well in 106 Medium supplemented with 2% LSGS. Then, cells were incubated at 37 °C in a humidified atmosphere with 5% CO2. Next, cells were treated with cycled peptide B at different non-toxic concentrations for 6 or 24 hours. Untreated cells were used as basal control. Cells were then lysed, and replicates were pooled together for RNA extraction using Qiagen RNeasy Mini kit following manufacturer's instructions. Purified RNAs was then quantified by nanodrop, adjusted in concentration and processed for retrotranscription to cDNA using a commercially available kit (High-Capacity cDNA Reverse Transcription kit - Thermofisher Scientific, USA). Resulting cDNA was used to perform a RTqPCR using Taqman technology, and a panel of probes designed to target different type of collagens and their respective matrix metalloproteinases.
The expression of collagen genes in HDFa cells was measured by qPCR.

[8] = system: MMP3 and MMP1; experiment: qPCR expression of metalloproteases in HDFa; assay type: cell-based, human; conditions: 24 hours, 0.01 mg/mL, compared with linear form (Figure 6C)
Method: as §1
Metalloproteases (MMP) are enzymes responsible of extracellular matrix degradation, also important in skin aging. The expression of MMP genes in HDFa cells was measured by qPCR after 24 hours of treatment with 0.01 mg/mL of peptide B and its linear form.

[9] = system: TGFβ3; experiment: qPCR TGFβ3 expression in HDF treated with conditioned media from peptide-treated keratinocytes; assay type: cell-based, human
Method: (§2) For TGFβ3 gene expression assessment, HEKa cells were seeded in 24-well plate at a density of […] and incubated at 37 °C in a humidified atmosphere with 5% CO2. Next day, cell culture media was replaced by fresh media containing 0.0025 or 0.01 mg/mL of cycled peptide B. In parallel, HDF cells were seeded on culture plates with or without coverslips (for immunofluorescence or qPCR, respectively) and incubated for 24 h.
(§3) Conditioned media from HEKa cells after 48 hours of treatment was then transferred to HDF culture plates. Cells were maintained in culture for additional 24h (for qPCR) or for 4 days (for collagen I immunostaining).
For qPCR, cells were lysed, RNA extracted, and gene expression for TGFβ3 target was obtained as indicated in the previous examples.

[10] = system: Collagen I (COL1); experiment: Collagen I immunostaining in HDF treated with conditioned media from peptide-treated keratinocytes; assay type: cell-based, human; conditions: 4 days of treatment with conditioned medium from peptide-treated keratinocytes (Figure 8)
Method: as §2, §3
For the evaluation of collagen I (COLI) synthesis by immunostaining, HDF cells treated with HEKa conditioned media (as explained above) were washed twice with PBS, fixed with 4% formaldehyde and permeabilized with Triton X-100 0.2%. Next, samples were blocked for 1 hour with PBS/BSA 5%, in order to avoid nonspecific antibody binding. For collagen I staining, samples were incubated for 2 hours with Monoclonal Anti-Collagen, Type I antibody diluted 1:100 in PBS/BSA 1%, at room temperature. […] Images were analyzed using Image J software as mentioned above.

[11] = system: CALR; experiment: RT-qPCR expression of CALR gene in HEKa; conditions: 0.01 mg/mL
Method: HEKa cells were incubated in the presence of 0.01 mg/mL cycled peptide B for 24 hours and HDFa cells were treated with 0.05 mg/mL of cycled peptide B for 6 h. Then, cells were lysed, and RNA was extracted (RNeasy mini kit, Qiagen). Purified RNAs were retro-transcribed (High-capacity cDNA reverse transcription kit, Applied Biosystems). RT-qPCR was performed with the panel of TaqMan assay probes (Thermo Fisher Scientific) using StepOne plus Real time PCR instrument. […] The obtained data were analyzed using the ΔΔCt method, which provides the target gene expression values as fold changes in the treated sample compared with an untreated basal sample. Both samples were normalized with the relative expression of the housekeeping gene GAPDH.
Additionally, expression of CALR after treatment with 0.01 mg/mL of cycled peptides A and B for 24 hours in HEKa cells was analyze by qPCR as described in example 3.

## CC(C)C[C@@H]1NC(=O)[C@H](C)NC(=O)[C@H](Cc2c[nH]cn2)NC(=O)[C@H](Cc2c[nH]c3ccccc23)NC(=O)[C@H](Cc2ccccc2)NC(=O)[C@H](CCCNC(=N)N)NC1=O [Peptide B, cyclo-Phe-Trp- His- Ala-Leu-Arg]
[1]
  Fold change vs. Basal: 1.23
[1]; normalized to GAPDH
  Mean normalized expression: 2.54E-02
[2]
  Fold change vs. Basal: 1.84
[2]; normalized to GAPDH
  Mean normalized expression: 1.15E-01
[3]
  Fold change vs. Basal: 1.31
[3]; normalized to GAPDH
  Mean normalized expression: 2.57E-01
[4]
  Fold change vs. Basal: 1.66
[4]; normalized to GAPDH
  Mean normalized expression: 1.02E+00
[5]
  Fold change vs. Basal: 1.74
[5]; normalized to GAPDH
  Mean normalized expression: 8.00E-03
[6]
  caspase 3 activity: significantly reduce
[7]
  expression of collagen genes: improves the induction of collagen-related genes
[8]
  regulation of MMP3 and MMP1 expression: reduces the expression of enzymes involved in collagen degradation
[9]; 24 h with conditioned media from HEKa treated 48 hours with 0.0025 mg/mL
  expression of TGFβ3 over the basal expression in keratinocyte conditioned media (KCM): 1.35 fold
[9]; 24 h with conditioned media from HEKa treated 48 hours with 0.01 mg/mL
  expression of TGFβ3 over the basal expression in keratinocyte conditioned media (KCM): 1.60 fold
[10]
  Collagen I (COL1) levels: significantly increased
[11]; 24 hours, qPCR (Table 5)
  CALR expression, Effect: Upregulation
[11]; 24 hours, qPCR (Table 5), Basal = 1.00
  CALR expression, Ratio: 1.78
[11]; CALR, 24 h (Table 3)
  Fold change vs. Basal: 2.67
[11]; CALR, 24 h, normalized to GAPDH
  Mean normalized expression: 6.83E-01
